In the assay the test system is choroidal neovascularization (CNV). In words: Inhibition of choroidal neovascularization: fluorescence value (CTF) at the CNV site by FFA, laser-induced CNV model, intravitreal injection. It is filed as in vivo, C57BL/6 mice. Conditions: ten days after administration; for CTF (corrected total fluorescence) value: laser-induced CNV, 1 μL intravitreal, peptide 10 mg/mL or aflibercept 20 mg/mL, lower CTF = less CNV; for CNV inhibitory efficacy from fluorescence value of the CNV site (in words): intravitreal. An excerpt:
The CNV animal model used in the present invention is a mouse model in which lesions are induced by irradiating a laser to the choroid of C57BL/6 mice using a laser slit system. The laser-induced CNV model, first described in 1979, uses photocoagulation to disturb Bruch's membrane to induce the growth of choroidal neovascularization into the retina area, and it is similar in development to neovascular disease in the human retina, that is, wet macular degeneration (wet AMD), in that neovascularity arises from the choroid. In addition, the laser-induced CNV model was successful in predicting the clinical efficacy of anti-vascular endothelial growth factor (VEGF) treatment for neovascular AMD, and is an animal model used in the development stage of existing therapeutic agents (Gong Y, Li J, Sun Y, Fu Z, Liu C H, Evans L, et al. (2015) Optimization of an Image-Guided Laser-Induced Choroidal Neovascularization Model in Mice. PLOS ONE 10 (7)).
In order to evaluate the efficacy of the peptide of the present invention to inhibit the choroidal neovascularization (CNV), an experiment was performed as follows.
The eyes of 7-8 week old C57BL/6 mice were instilled with a mydriatic agent to dilate the pupils, and the mice were anesthetized by intraperitoneal injection of ketamine (50 mg/kg) and rompun (23.32 mg/kg). A slit-lamp laser injection system was used to irradiate the laser to the choroid of each eye of the mouse four times in the 12 o'clock, 3 o'clock, 6 o'clock, and 9 o'clock directions. At this time, the laser irradiation conditions were 532 nm, 80 msec, and 240 mW. Immediately after laser irradiation, 1 μL of each peptide at a concentration of 10 mg/mL or aflibercept at a concentration of 20 mg/mL, which was dissolved in PBS, was injected into the vitreous body using a syringe. Ten days after drug administration, the mice were anesthetized, and 2% fluorescein was administered to the abdominal cavity to stain blood vessels. The retina was photographed 2 to 3 minutes after fluorescein administration. The size and fluorescence value of CNV lesions induced by laser were measured using the ImageJ program, and in order to reduce the differences between subjects, the CTF (corrected total fluorescence) was calculated by removing the background, and the values of each group were compared. The results of all tests are expressed as mean±standard deviation, and significance was verified using one-way ANOVA and Kruskal-wallis test.

Where no end group is shown, it is not given here. [ ]: non-standard residue; d: D form. Pro(4-methylene) = C=C1CN[C@H](C(=O)O)C1; Pro(4,4-F2) = O=C(O)[C@@H]1CC(F)(F)CN1; Pro(4,4-Me2) = CC1(C)CN[C@H](C(=O)O)C1; Hyp = O=C(O)[C@@H]1C[C@@H](O)CN1; dHyp = O=C(O)[C@H]1C[C@H](O)CN1

“4,4-difluoro-Pro-Gly-Gln-Asp-Gly ([Pro(4,4-F2)]GQDG) [Example 24]”: the “CTF (corrected total fluorescence) value” is listed as “+ (+: 300,000 to 800,000)”.

Consider “4,4-difluoro-Pro-Gly-Gln-Asp-Gly-Leu ([Pro(4,4-F2)]GQDGL) [Example 29]”, for which the “CTF (corrected total fluorescence) value” was “+ (+: 300,000 to 800,000)”.

Turning to “4,4-dimethyl Pro-Gly-Gln-Asp-Gly ([Pro(4,4-Me2)]GQDG) [Example 26]”, the “CTF (corrected total fluorescence) value” is “+ (+: 300,000 to 800,000)”.

“4,4-dimethyl Pro-Gly-Gln-Asp-Gly-Leu ([Pro(4,4-Me2)]GQDGL) [Example 31]”: the “CTF (corrected total fluorescence) value” is “+ (+: 300,000 to 800,000)”.

As to “4,4-dimethyl Pro-Gly-Gln-Asp-Gly-Leu-Ala ([Pro(4,4-Me2)]GQDGLA; also: X1: 4,4-dimethyl-Pro (name) or 4-methylene-L-proline) [Example 35]”, the “CTF (corrected total fluorescence) value” was “+ (+: 300,000 to 800,000)”.

Regarding “4-methylene-Pro-Gly-Gln-Asp-Gly ([Pro(4-methylene)]GQDG) [Example 25]”, the “CTF (corrected total fluorescence) value” is on record as “+ (+: 300,000 to 800,000)”.

Take “4-methylene-Pro-Gly-Gln-Asp-Gly-Leu ([Pro(4-methylene)]GQDGL) [Example 30]”: the “CTF (corrected total fluorescence) value” is “+ (+: 300,000 to 800,000)”.

With “D-Hyp-Gly-Gln-Asp-Gly-Leu-Ala ([dHyp]GQDGLA) [Example 32]”, the “CTF (corrected total fluorescence) value” was “+ (+: 300,000 to 800,000)”.

Turning to “Hyp-Gly-Gln-Asp-Ala-Leu ([Hyp]GQDAL) [Example 9]”, the “CNV inhibitory efficacy from fluorescence value of the CNV site (in words)” value is given as “very excellent inhibitory efficacy” and the “CTF (corrected total fluorescence) value” is on record as “++ (++: 200,000 to 300,000)”.

Turning to “Hyp-Gly-Gln-Asp-Ala-Leu-Ala ([Hyp]GQDALA) [Example 16]”, the “CTF (corrected total fluorescence) value” was “+ (+: 300,000 to 800,000)”.

Turning to “Hyp-Gly-Gln-Asp-Gly-D-Leu ([Hyp]GQDG[dL]) [Example 12]”, the “CTF (corrected total fluorescence) value” is “+ (+: 300,000 to 800,000)”.

Take “Hyp-Gly-Gln-Asp-Gly-D-Leu-Ala ([Hyp]GQDG[dL]A) [Example 20]”: the “CTF (corrected total fluorescence) value” is listed as “+ (+: 300,000 to 800,000)”.

In the case of “Hyp-Gly-Gln-Asp-Gly-Leu-D-Ala ([Hyp]GQDGL[dA]) [Example 21]”, the “CTF (corrected total fluorescence) value” is recorded as “+ (+: 300,000 to 800,000)”.

On to “Hyp-Gly-Gln-Asp-Leu ([Hyp]GQDL) [Example 2]”, for which the “CTF (corrected total fluorescence) value” is listed as “+ (+: 300,000 to 800,000)”.

Regarding “Hyp-Gly-Gln-Asp-Leu-Leu ([Hyp]GQDLL) [Example 8]”, the “CNV inhibitory efficacy from fluorescence value of the CNV site (in words)” value is “very excellent inhibitory efficacy” and the “CTF (corrected total fluorescence) value” was “++ (++: 200,000 to 300,000)”.

For the substance “Hyp-Gly-Gln-D-Asp-Gly-Leu ([Hyp]GQ[dD]GL) [Example 11]”, the “CTF (corrected total fluorescence) value” is “+ (+: 300,000 to 800,000)”.

For the substance “Hyp-Gly-Gln-Glu-Gly ([Hyp]GQEG) [Example 36]”, the “CTF (corrected total fluorescence) value” was “+ (+: 300,000 to 800,000)”.

“Hyp-Gly-Gln-Glu-Leu-Leu ([Hyp]GQELL) [Example 38]”: the “CTF (corrected total fluorescence) value” is on record as “+ (+: 300,000 to 800,000)”.

Take “Hyp-Gly-Gln-Glu-Val-Leu ([Hyp]GQEVL) [Example 39]”: the “CTF (corrected total fluorescence) value” is reported as “+ (+: 300,000 to 800,000)”.

With [Hyp]GQ[dD]G [Example 5], the “CTF (corrected total fluorescence) value” is on record as “+ (+: 300,000 to 800,000)”.

Take [Hyp]GQ[dD]GLA [Example 19]: the “CTF (corrected total fluorescence) value” is listed as “+ (+: 300,000 to 800,000)”.

[Hyp]G[dQ]DG [Example 4]: the “CTF (corrected total fluorescence) value” is recorded as “+ (+: 300,000 to 800,000)”.

Turning to [Hyp]G[dQ]DGL [Example 10], the “CTF (corrected total fluorescence) value” is “+ (+: 300,000 to 800,000)”.

With [Hyp]G[dQ]DGLA [Example 18], the “CTF (corrected total fluorescence) value” is on record as “+ (+: 300,000 to 800,000)”.

For [dHyp]GQDG [Example 6], the “CTF (corrected total fluorescence) value” is “+ (+: 300,000 to 800,000)”.

The values are drawn from US20260232753A1, “COMPOSITION FOR TREATING MACULAR DEGENERATION COMPRISING NOVEL PEPTIDE” (EYEBIOKOREA, INC., priority 2021, published 2026).
